{
  "source": "paper PMC9574929",
  "about": "“Development of Hydrogen Sulfide-Releasing Carbonic Anhydrases IX- and XII-Selective Inhibitors with Enhanced Antihyperalgesic Action in a Rat Model of Arthritis” (Journal of Medicinal Chemistry, 2022)",
  "key": {"[1]": {"experiment": "Spectrophotometric methylene blue H2S release assay in rat liver homogenate", "conditions": "compound 150 μM, 37 °C", "procedure": "The released H2S, trapped by zinc acetate to form zinc sulfide, reacts with N,N-dimethyl-1,4-phenylenediamine in the presence of iron(III) to yield methylene blue, which can be easily quantified by measuring absorbance at 667 nm (MB^+ form) or at 748 nm (MBH^2+).[42],[43] The compound H2S release in different conditions was monitored over time and quantified according to a calibration curve with Na2S (1–300 μM). Incubation of compound 3 and the hybrid derivatives in phosphate buffer at 37 °C either in the presence or absence of thiol compounds (cysteine or glutathione) produced no or a barely detectable H2S release, respectively. […]\nRat liver was homogenized in ice-cold 50 mM potassium phosphate buffer (pH 7.4).[41] Optimal w/v ratios of 1/20 were determined from preliminary experiments (data not shown). […] The released H2S concentration was measured as described previously.[45] […] Baseline H2S concentration was determined in incubates upon addition of trichloroacetic acid directly to the tissue homogenate in absence of the compound. Thus, N,N-dimethyl-p-phenylenediamine sulfate in HCl 5 M (20 mM; 200 μL) and FeCl3 in HCl 1.2 M (30 mM; 200 μL) were added to the mixture, and the absorbance of the formed methylene blue was measured after 30 min at 25 °C at 667 nm using a Varian Cary 300 UV–Visible spectrophotometer. […]"}, "[2]": {"tested_on": "rat model of arthritis induced by the intra-articular injection of complete Freund's adjuvant (CFA)", "experiment": "Paw pressure test, CFA-induced arthritis", "assay_type": "in vivo", "procedure": "(§1) Articular damage was induced by injection of Complete Freund’s Adjuvant (CFA; Sigma-Aldrich, St Louis, MO, USA), containing 1 mg/mL of heat-killed and dried Mycobacterium tuberculosis in paraffin oil and mannide monooleate, into the tibiotarsal joint.[50] Briefly, the rats were lightly anesthetized with 2% isoflurane, the left leg skin was sterilized with 75% ethyl alcohol, and the lateral malleolus was located by palpation. A 28-gauge needle was then inserted vertically to penetrate the skin and turned distally for insertion into the articular cavity at the gap between the tibiofibular and tarsal bone until a distinct loss of resistance was felt. A volume of 50 μL of CFA was then injected (day 0). Control rats received 50 μL of saline solution (day 0) in the tibiotarsal joint.\n(§2) The hybrid derivatives 26, 29, 30, and 31 (1, 10, and 30 mg/kg) were suspended in a 1% solution of carboxymethylcellulose (CMC) sodium salt and acutely per os administered starting from day 14 after CFA i.a. injection, when arthritis was well established. The H2S releaser 3 and CAI 15 were also administered alone or in coadministration at the equimolar dose of compound 30 30 mg/kg (13.23 and 17.71 mg/kg, respectively). The antihypersensitivity effects were evaluated over time by the Paw pressure and Incapacitance tests.\nThe nociceptive threshold of rats was determined with an analgesimeter (Ugo Basile, Varese, Italy), according to the method described by Leighton et al.[51] and Maresca et al.,[52] (doi: 10.1111/jphp.12828). Briefly, a constantly increasing pressure was applied to a small area of the dorsal surface of the hind paw using a blunt conical probe by a mechanical device. Mechanical pressure was increased until vocalization or a withdrawal reflex occurred while rats were lightly restrained. Vocalization or withdrawal reflex thresholds were expressed in grams. […]"}, "[3]": {"tested_on": "rat model of arthritis induced by the intra-articular injection of complete Freund's adjuvant (CFA)", "experiment": "Incapacitance test, CFA-induced arthritis", "assay_type": "in vivo", "procedure": "as §1, §2\nWeight-bearing changes were measured using an incapacitance apparatus (Linton Instrumentation, Norfolk, U.K.) to detect changes in postural equilibrium after a hind limb injury.[53],[54] Rats were trained to stand on their hind paws in a box with an inclined plane (65° from horizontal). This box was placed above the incapacitance apparatus. This allowed us to independently measure the weight that the animal applied on each hind limb. The value reported for each animal is the mean of five consecutive measurements. In the absence of hind limb injury, rats applied an equal weight on both hind limbs, indicating postural equilibrium, whereas an unequal distribution of weight on the hind limbs indicated a monolateral decreased pain threshold. Data are expressed as the difference between the weight applied to the limb contralateral to the injury and the weight applied to the ipsilateral limb (Δ weight)."}, "[4]": {"conditions": "per os, 3 13.23 mg/kg, 15 17.71 mg/kg"}},
  "data": [
    {"smiles": "O=C(O)c1ccc(-c2cssc2=S)cc1", "note": "[Compound 3, 4-(3-Thioxo-3H-1,2-dithiol-4-yl)benzoic Acid]", "values": [
      {"measurement": "time at which H2S release peaked / reached a plateau", "setting": "[1]", "result": "~20", "unit": "min"},
      {"measurement": "time of peak antihyperalgesic effect, Paw pressure test", "setting": "[2]; after per os administration", "result": 15, "unit": "min"},
      {"measurement": "antihyperalgesic effect, Paw pressure test, dose equimolar to 30 30 mg/kg", "setting": "[2]; [4]", "result": "rapid antihyperalgesic effect that peaked at 15 min and totally disappeared after 45 min"},
      {"measurement": "time of peak of efficacy, Incapacitance test", "setting": "[3]; after per os treatment", "result": 15, "unit": "min"},
      {"measurement": "antihyperalgesic effect, Incapacitance test, dose equimolar to 30 30 mg/kg", "setting": "[3]; [4]", "result": "comparable to that of the hybrid analogue 30 at its optimal dose"}
    ]}
  ]
}
